The text below walks through data of patent publication US12060385B2, “Compounds for RNA capping and uses thereof” (GUANGZHOU HENOVCOM BIOSCIENCE CO., LTD., priority 2022, dated 2024).

Chain of T7 RNA Polymerase (P00573 whole entry): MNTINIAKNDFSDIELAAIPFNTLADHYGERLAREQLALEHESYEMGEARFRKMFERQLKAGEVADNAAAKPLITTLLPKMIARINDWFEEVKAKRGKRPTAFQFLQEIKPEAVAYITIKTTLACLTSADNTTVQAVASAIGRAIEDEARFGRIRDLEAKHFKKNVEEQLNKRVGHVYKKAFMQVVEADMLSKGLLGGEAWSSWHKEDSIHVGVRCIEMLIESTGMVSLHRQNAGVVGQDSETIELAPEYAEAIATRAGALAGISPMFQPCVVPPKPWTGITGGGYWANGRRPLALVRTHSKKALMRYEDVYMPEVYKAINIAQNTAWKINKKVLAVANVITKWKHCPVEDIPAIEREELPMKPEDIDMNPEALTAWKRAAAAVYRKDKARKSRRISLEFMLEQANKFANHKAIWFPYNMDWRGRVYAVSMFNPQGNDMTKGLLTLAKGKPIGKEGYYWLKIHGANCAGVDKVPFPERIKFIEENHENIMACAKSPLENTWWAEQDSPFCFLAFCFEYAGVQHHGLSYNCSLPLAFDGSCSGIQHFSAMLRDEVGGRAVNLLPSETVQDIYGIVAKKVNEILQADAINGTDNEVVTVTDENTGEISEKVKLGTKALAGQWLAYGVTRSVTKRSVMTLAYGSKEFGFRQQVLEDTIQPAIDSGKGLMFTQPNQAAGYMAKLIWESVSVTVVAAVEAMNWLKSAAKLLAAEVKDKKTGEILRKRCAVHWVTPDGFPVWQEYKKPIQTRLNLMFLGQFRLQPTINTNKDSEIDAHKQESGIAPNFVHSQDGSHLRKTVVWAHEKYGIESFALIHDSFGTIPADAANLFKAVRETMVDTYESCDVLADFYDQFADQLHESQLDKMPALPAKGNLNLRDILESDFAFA

The experiment deals with T7 RNA Polymerase (Escherichia phage T7, UniProt P00573). The class given is biochemical. The settings on record: 20 μL transcription system, Cap1 Analog 4 mM, 37° C. 2 to 3 hours. As to the method:
• 1) A plasmid was linearized and the DNA template was purified. • 2) mRNA was synthesized in vitro with 51 types of capping structures of the present disclosure, or without any cap analogues. CleanCap®AG (3′OMe) (Trilink, N-7413) was applied as positive control group, uncapped mRNA was negative control group, and DNAase/RNase-Free water was a blank control group.
The system was incubated for 2 to 3 hours at 37° C. and digested by TURBO DNase for 15 min LiCl was used to precipitate mRNA for at least 30 min, or overnight, mRNA precipitates were then washed with 75% ethanol. After ethanol was quickly volatilized, mRNA was re-solubilized with RNase-Free water. • 3) The transcribed products were purified and the transcription yields were calculated.
For `COCC[C@H]1[C@@H](O)[C@H](n2c[n+](C)c3c(=O)[nH]c(N)nc32)O[C@@H]1COP(=O)(O)OP(=O)(O)OP(=O)(O)OC[C@H]1O[C@@H](n2cnc3c(N)ncnc32)[C@H](OC)[C@@H]1OP(=O)([O-])OC[C@H]1O[C@@H](n2cnc3c(=O)[nH]c(N)nc32)[C@H](O)[C@@H]1O` [Compound 5], the “Final product mass obtained from the 20 μL of mRNA transcription system” value (shortened to “Final product mass obtained”) amounted to 95 µg.
Then `C=CCOC[C@H]1[C@@H](O)[C@H](n2c[n+](C)c3c(=O)[nH]c(N)nc32)O[C@@H]1COP(=O)(O)OP(=O)(O)OP(=O)(O)OC[C@H]1O[C@@H](n2cnc3c(N)ncnc32)[C@H](OC)[C@@H]1OP(=O)(O)OC[C@H]1O[C@@H](n2cnc3c(=O)[nH]c(N)nc32)[C@H](O)[C@@H]1O` [Compound 33], with 103 µg; and `C#CCOCC[C@H]1[C@@H](O)[C@H](n2c[n+](C)c3c(=O)[nH]c(N)nc32)O[C@@H]1COP(=O)(O)OP(=O)(O)OP(=O)(O)OC[C@H]1O[C@@H](n2cnc3c(N)ncnc32)[C@H](OC)[C@@H]1OP(=O)(O)OC[C@H]1O[C@@H](n2cnc3c(=O)[nH]c(N)nc32)[C@H](O)[C@@H]1O` [Compound 51], with 114 µg; and `COCCNC(=O)C[C@@H]1[C@@H](COP(=O)(O)OP(=O)(O)OP(=O)(O)OC[C@H]2O[C@@H](n3cnc4c(N)ncnc43)[C@H](OC)[C@@H]2OP(=O)([O-])OC[C@H]2O[C@@H](n3cnc4c(=O)[nH]c(N)nc43)[C@H](O)[C@@H]2O)OC(n2c[n+](C)c3c(=O)[nH]c(N)nc32)[C@@H]1O` (stereo partly drawn) [Compound 58], with 115 µg.
`COC[C@H]1[C@@H](O)[C@H](n2c[n+](C)c3c(=O)[nH]c(N)nc32)O[C@@H]1COP(=O)(O)OP(=O)(O)OP(=O)(O)OC[C@H]1O[C@@H](n2cnc3c(N)ncnc32)[C@H](OC)[C@@H]1OP(=O)([O-])OC[C@H]1O[C@@H](n2ccc(=O)[nH]c2=O)[C@H](O)[C@@H]1O` [Compound 110]: the “Final product mass obtained” value came out at 106 µg.
As for `CO[C@@H]1[C@H](OP(=O)([O-])OC[C@H]2O[C@@H](n3ccc(=O)[nH]c3=O)[C@H](O)[C@@H]2O)[C@@H](COP(=O)(O)OP(=O)(O)OP(=O)(O)OC[C@H]2OC(n3c[n+](C)c4c(=O)[nH]c(N)nc43)[C@H](O)[C@@H]2CNC(C)=O)O[C@H]1n1cnc2c(N)ncnc21` (stereo partly drawn) [Compound 118], the figure is 86 µg; as for `CO[C@@H]1[C@H](OP(=O)(O)OC[C@H]2O[C@@H](n3cnc4c(=O)[nH]c(N)nc43)[C@H](O)[C@@H]2O)[C@@H](COP(=O)(O)OP(=O)(O)OP(=O)(O)OC[C@H]2O[C@@H](n3c[n+](C)c4c(=O)[nH]c(N)nc43)[C@H](O)[C@@H]2CO)O[C@H]1n1cnc2c(N)ncnc21` [Compound 137], 116 µg; as for `CCCCOC[C@H]1[C@@H](O)[C@H](n2c[n+](C)c3c(=O)[nH]c(N)nc32)O[C@@H]1COP(=O)(O)OP(=O)(O)OP(=O)(O)OC[C@H]1O[C@@H](n2cnc3c(N)ncnc32)[C@H](OC)[C@@H]1OP(=O)(O)OC[C@H]1O[C@@H](n2cnc3c(=O)[nH]c(N)nc32)[C@H](O)[C@@H]1O` [Compound 151], 110 µg.
As for `CO[C@@H]1[C@H](OP(=O)([O-])OC[C@H]2O[C@@H](n3cnc4c(=O)[nH]c(N)nc43)[C@H](O)[C@@H]2O)[C@@H](COP(=O)(O)OP(=O)(O)OP(=O)(O)OC[C@H]2O[C@@H](n3c[n+](C)c4c(=O)[nH]c(N)nc43)[C@H](O)[C@@H]2CCO)O[C@H]1n1cnc2c(N)ncnc21` [Compound 153], the figure is 65 µg.
`CCCOCC[C@H]1[C@@H](O)[C@H](n2c[n+](C)c3c(=O)[nH]c(N)nc32)O[C@@H]1COP(=O)(O)OP(=O)(O)OP(=O)(O)OC[C@H]1O[C@@H](n2cnc3c(N)ncnc32)[C@H](OC)[C@@H]1OP(=O)(O)OC[C@H]1O[C@@H](n2cnc3c(=O)[nH]c(N)nc32)[C@H](O)[C@@H]1O` [Compound 163]: the “Final product mass obtained” value was 102 µg.
Then `COC[C@H]1[C@@H](O)[C@H](n2c[n+](C)c3c(=O)[nH]c(N)nc32)O[C@@H]1COP(=O)(O)CP(=O)(O)OP(=O)(O)OC[C@H]1O[C@@H](n2cnc3c(N)ncnc32)[C@H](OC)[C@@H]1OP(=O)(O)OC[C@H]1O[C@@H](n2cnc3c(=O)[nH]c(N)nc32)[C@H](O)[C@@H]1O` [Compound 171], with 105 µg; and `COC[C@H]1[C@@H](O)[C@H](n2c[n+](C)c3c(=O)[nH]c(N)nc32)O[C@@H]1COP(=O)(O)OP(=O)(O)OP(=O)(O)OP(=O)(O)OC[C@H]1O[C@@H](n2cnc3c(N)ncnc32)[C@H](OC)[C@@H]1OP(=O)(O)OC[C@H]1O[C@@H](n2cnc3c(=O)[nH]c(N)nc32)[C@H](O)[C@@H]1O` [Compound 189], with 92 µg.
With `COC[C@@H]1[C@@H](COP(=O)(O)OP(=O)([O-])OP(=O)([O-])OC[C@H]2O[C@@H](n3cnc4c(N)ncnc43)[C@H](OC)[C@@H]2NP(=O)(O)OC[C@H]2O[C@@H](n3cnc4c(=O)[nH]c(N)nc43)[C@H](O)[C@@H]2O)OC(n2c[n+](C)c3c(=O)[nH]c(N)nc32)[C@@H]1O.[Na+]` (stereo partly drawn) [Compound 195], the “Final product mass obtained” value is 69 µg.
In the case of `CNc1ncnc2c1ncn2[C@@H]1O[C@H](COP(=O)(O)OP(=O)(O)OP(=O)(O)OC[C@H]2O[C@@H](n3c[n+](C)c4c(=O)[nH]c(N)nc43)[C@H](O)[C@@H]2COC)[C@@H](OP(=O)([O-])OC[C@H]2O[C@@H](n3cnc4c(=O)[nH]c(N)nc43)[C@H](O)[C@@H]2O)[C@H]1OC` [Compound 197], the “Final product mass obtained” value is 121 µg.
Then `COC[C@H]1[C@@H](O)[C@H](n2c[n+](C)c3c(=O)[nH]c(N)nc32)O[C@@H]1COP(=O)(O)OP(=O)(O)OP(=O)(O)OC[C@H]1O[C@@H](n2cnc3c(N)ncnc32)[C@H](OC)[C@@H]1OCOC[C@H]1O[C@@H](n2cnc3c(=O)[nH]c(N)nc32)[C@H](O)[C@@H]1O` [Compound 199], with 95 µg; and `CCO[C@@H]1[C@H](OP(=O)(O)OC[C@H]2O[C@@H](n3cnc4c(=O)[nH]c(N)nc43)[C@H](O)[C@@H]2O)[C@@H](COP(=O)(O)OP(=O)(O)OP(=O)(O)OCC2O[C@@H](n3c[n+](C)c4c(=O)[nH]c(N)nc43)[C@H](O)[C@@H]2COC)O[C@H]1n1cnc2c(N)ncnc21` (stereo partly drawn) [Compound 203], with 96 µg; and `COC[C@H]1[C@@H](O)[C@H](n2c[n+](Cc3ccccc3)c3c(=O)[nH]c(N)nc32)O[C@@H]1COP(=O)(O)OP(=O)(O)OP(=O)(O)OC[C@H]1O[C@@H](n2cnc3c(N)ncnc32)[C@H](OC)[C@@H]1OP(=O)([O-])OC[C@H]1O[C@@H](n2cnc3c(=O)[nH]c(N)nc32)[C@H](O)[C@@H]1O` [Compound 215], with 95 µg.
As for `COC[C@H]1[C@@H](O)[C@H](n2c[n+](C)c3c(=O)[nH]c(NC(C)C)nc32)O[C@@H]1COP(=O)(O)OP(=O)(O)OP(=O)(O)OC[C@H]1O[C@@H](n2cnc3c(N)ncnc32)[C@H](OC)[C@@H]1OP(=O)([O-])OC[C@H]1O[C@@H](n2cnc3c(=O)[nH]c(N)nc32)[C@H](O)[C@@H]1O` [Compound 219], the figure is 101 µg.
